According to ChEMBL document CHEMBL2010715, “Verrulactones A and B, new inhibitors of Staphylococcus aureus enoyl-ACP reductase produced by Penicillium verruculosum F375” (Bioorg Med Chem Lett, 2012):
Converted amounts (≈) assume the structure as drawn. The source made the active and inactive calls. No cut-off for these calls is given here.

Tests used:
[1] = (§1) Inhibition of Staphylococcus aureus Fab1
Staphylococcus aureus [2] = assay: as §1
Staphylococcus aureus [3] = assay: Antibacterial activity against Staphylococcus aureus RN4220; type: functional
Staphylococcus aureus [4] = assay: Antibacterial activity against methicillin-resistant Staphylococcus aureus CCARM 3167; type: functional
Bacillus cereus = assay: Antibacterial activity against Bacillus cereus KCTC 1661; type: functional
Escherichia coli = assay: Antibacterial activity against Escherichia coli KCTC 1683; type: functional, organism-based
Pseudomonas aeruginosa = assay: Antibacterial activity against Pseudomonas aeruginosa KCTC 2004; type: functional, organism-based

For `COc1cc(O)c2c(=O)oc3cc(O)c(O)c(-c4c(O)c(O)cc5oc(=O)c6c(O)cc(OC)cc6c45)c3c2c1` [VERRULACTONE A], the IC50 [1] was 0.92 µM, the inhibition (Staphylococcus aureus [2]) was “Dose-dependent effect” and the MIC (Staphylococcus aureus [3]) was 8 mg/L (≈ 14.6 µM). The MIC (Staphylococcus aureus [4]) was 8 mg/L (≈ 14.6 µM), the MIC (Bacillus cereus) was 8 mg/L (≈ 14.6 µM) and the Activity (Escherichia coli) was “inactive”. For the same compound, the Activity (Pseudomonas aeruginosa) was “inactive”.
With `COc1cc(O)c2c(=O)oc3c(-c4c(O)c(O)cc5oc(=O)c6c(O)cc(OC)cc6c45)c(O)c(O)cc3c2c1` [VERRULACTONE B] the IC50 [1] was 1.41 µM, the MIC (Staphylococcus aureus [3]) was 16 mg/L (≈ 29.3 µM) and the MIC (Staphylococcus aureus [4]) was 16 mg/L (≈ 29.3 µM).
